Key:
MerCreMer/ZEG (M/Z) mice = assay: Cardiomyocyte replenishment after myocardial infarction, GFP+ / β-Gal+ cardiomyocyte counting; type: in vivo, mouse
Procedure: All experiments involving animals were conducted in accordance with the Guide for the Use and Care of Laboratory Animals, and all animal protocols have been approved by National Cheng Kung University. Sca-1^− GFP, B6.Cg-Tg(Ly6a-GFP)G5Dzk/J and EP2^−/−, B6.129-Ptger2^tm/Brey/J mice were obtained from Jackson Laboratory. The double transgenic MerCreMer/ZEG (M/Z) mice were generated by crossbreeding MerCreMer and Z/EG mice (Jackson Laboratory), which have C57BL/6SV129 and C57BL/6J (N7) background strains, respectively. The MerCreMer mice contain a tamoxifen-inducible Cre recombinase fusion protein driven by the cardiomyocyte-specific α-MHC promoter. In Z/EG mice, GFP replace constitutive β-Gal expression after the removal of a LoxP-flanked stop sequence by Cre.
M/Z mice were subjected to experimental myocardial infarction (MI) one month after the last tamoxifen injection. MI was generated by ligating the left anterior descending coronary artery at 2-3 mm distal to the left atrial appendage. For cell transplantation experiments, intramyocardial injections were performed immediately after coronary ligation. A total of 6×10^5 cardiac Sca-1^+ cells were injected per mouse in two divided injections (5 μl/injection). For BrdU labeling, the mice were subcutaneously implanted with osmotic minipump (Alzet) at the time of surgery and 40 μg/μl of BrdU (Sigma) was administrated. For immunohistological studies, mice were sacrificed and the hearts were harvested at different time points following experimental MI surgery. Cardiac performances were assessed by echocardiography at 28 and 56 days after operation using Vevo 770 (Visualsonics, Toronto, Canada).
(§1) To induce Cre recombination to achieve GFP labeling of cardiomyocytes, tamoxifen (Sigma) was dissolved in sunflower oil (Sigma) at a concentration of 5 mg/ml. The tamoxifen solution was injected intraperitoneally into M/Z mice daily at a dosage of 40 μg per 1 g body weight for 14 days, and the same dosage was injected twice daily for short-term labeling using methods known in the art (Laugwitz, K.-L. et al. Nature 433, 647-653 (2005)). All experimental conditions were optimized prior to the PGE2, indomethacin and TGF-β Type I Receptor Kinase Inhibitor II (ALK5 Inhibitor II, ALK5i, Merck) treatments. The mice treated with PGE2 or PGI2 (Vegiopoulos, A. et al. Science 328, 1158-1161 (2010)) (both from Sigma) were injected intraperitoneally with 3.33 ng of drug per 1 g of body weight dissolved in absolute ethanol twice daily. For the indomethacin treatment, mice were fed with water containing indomethacin (Sigma, 15 μg/ml) for different periods of time. The indomethacin-containing water was changed every 3 days. The mice subjected to the celecoxib (Lyons, T. R. et al. Nat. Med. 17, 1109-1115 (2011)) (Sigma) treatment were injected intraperitoneally with 5 μg of drug per 1 g of body weight daily. For ALK5i treatment, aged mice were injected intraperitoneally once per day with 1 μg of drug per 1 g of body weight one day before surgery and continuously until day 10 post-MI. Celecoxib and ALK5i were dissolved in ethanol and DMSO, respectively.
All of the cellular quantifications were performed double-blindly to minimize personal bias. […] For the cardiomyocyte cell counts, 3 sections from each heart, and 2 infarction border zones and 1 remote area from each section were analyzed at a magnification of 200× by light microscopy. Cells with visible sarcomere structures were analyzed, and the average number of cells counted was 171.8±5.8 per photo image. For the small cardiac cell counts, more than five sections from each heart were analyzed at a magnification of 400× using fluorescence microscopy. The average number of cells counted was 17.01±0.99 per photo image, and more than one hundred and fifty cells were analyzed from each heart. As quantification result is the averaged values calculated from the pictures taken from six border zone sections per heart, personal variation has been minimized. […]

Sca-1 = assay: Quantitative RT-PCR of Sca-1 in infarct zone of MI heart; type: in vivo, mouse; settings: young mice, day 3 post-MI
Procedure: as §1
The total RNA isolated from the ischemic region or remote area of MI hearts was reverse transcribed using the SuperScript III (Invitrogen) system according to the manufacturer's protocol. For quantitative PCR, the SYBR Green reagent (Maestrogen) was used according to the manufacturer's protocol. The analysis of relative gene expression was performed using the 2̂[−delta delta Ct] method and sequence-specific primers designed for semi-quantitative PCR and real-time RT-PCR (FIG. 11).

Cc1cccc(-c2[nH]ncc2-c2ccc3ncccc3n2)n1 [ALK5i]
cardiomyocyte replenishment in comparison with the vehicle control group (MerCreMer/ZEG (M/Z) mice; aged mice, 1 μg per 1 g i.p. once per day from one day before surgery until day 10 post-MI, day 14 post-MI, P<0.01): restored cardiomyocyte replenishment

CCCCC[C@H](O)/C=C/[C@@H]1[C@H]2C/C(=C/CCCC(=O)O)O[C@H]2C[C@H]1O [PGI2, prostaglandin I2]
significant increase of cardiomyocyte replenishment compared to the vehicle control (in words) (MerCreMer/ZEG (M/Z) mice; border zone, 3.33 ng per 1 g i.p. twice daily for 14 days): not

COc1ccc2c(c1)c(CC(=O)O)c(C)n2C(=O)c1ccc(Cl)cc1 [indomethacin]
stem cell-dependent cardiomyocyte reconstitution (MerCreMer/ZEG (M/Z) mice; administered more than 5 days post-MI (Indo 9 D)): no significant effect | drop of cardiomyocyte restoration rate (MerCreMer/ZEG (M/Z) mice; border zone, Indo 14D (1 day before and 14 days after MI), 15 μg/ml in water, P<0.05): about 10% | cardiomyocyte replenishment (MerCreMer/ZEG (M/Z) mice; border zone, given during the first 5 days post-MI (Indo 5 D), P<0.05): sufficient to impair cardiomyocyte replenishment | MI-induced cardiomyocyte replenishment (MerCreMer/ZEG (M/Z) mice; remote area, indomethacin in water): abrogated | Sca-1 expression (Sca-1): repressed

— patent US20130331389A1, “Methods and Compositions for Cardiomyocyte Replenishment by Endogenous and Progenitor Stem Cells” (NATIONAL CHENG KUNG UNIVERSITY, priority 2012, published 2013)
